Counter-ions that a name gives are not always drawn.
Tests used:
norepinephrine uptake = conditions: cited from earlier work
monoamine oxidase = conditions: cited from earlier work
[1] = Stability of escitalopram oxalate in commercial formulations and in contact with bupropion hydrochloride; format: physicochemical
Source text: Preferably, the bupropion and escitalopram in the oral dosage form are physically separated. The inventors have discovered that conventional formulations of escitalopram hydrobromide and escitalopram oxalate unexpectedly degrade under storage conditions. […] The escitalopram and bupropion may be separated by having separate discrete zones of the dosage form (such as different layers) for each component. Alternatively, the dosage form may include a plurality of escitalopram tablets or beads and a plurality of bupropion tablets or beads, where one or both of the escitalopram tablets/beads and bupropion tablets/beads are coated.

| Structure (SMILES) | blockade of norepinephrine uptake (norepinephrine uptake) | inhibition of monoamine oxidase (monoamine oxidase) | time stable in commercial formulations ([1]; commercial formulations) | degradation rate compared with commercial formulations ([1]; stored in intimate contact with bupropion hydrochloride) |
| --- | --- | --- | --- | --- |
| CC(NC(C)(C)C)C(=O)c1cccc(Cl)c1 (racemic) [bupropion, (±)-1-(3-chlorophenyl)-2-[(1,1-dimethylethyl)amino]-1-propanone] | weak blocker | does not inhibit | – | – |
| CN(C)CCC[C@@]1(c2ccc(F)cc2)OCc2cc(C#N)ccc21 [escitalopram oxalate] | – | – | about 12 months | degrades significantly more rapidly |
